Measurements taken from patent publication US20140005417A1, “WATER-INSOLUBLE COLORING COMPOUND, INK, RESIST COMPOSITION FOR COLOR FILTER, AND THERMAL TRANSFER RECORDING SHEET” (CANON KABUSHIKI KAISHA, priority 2011, published 2014).

What was measured:
[1] = Light resistance evaluation of ink image samples (exposure test); conditions: ink image sample with L* closest to 60; Weather-Ometer exposure 36 hours, black panel 50° C., chamber 40° C., RH 70%, 340 nm 0.39 W/m^2; less than 10 = good
Procedure: The measurement conditions were as follows:
Relative Humidity: 70%, and
Before and after the exposure test, chromaticity (L*, a*, and b*) in the L*a*b* color system of the sample was measured with a reflection densitometer SpectroLino (manufactured by Gretag Macbeth AG). The color difference (ΔE) was calculated from the measured values of color properties by the following expression:
Color difference (ΔE)=[{(a* before the test)−(a* after the test)}^2+{(b* before the test)−(b* after the test)}^2+{(L* before the test)−(L* after the test)}^2]^1/2
When the ΔE after 36 hours was less than 10, the light resistance was evaluated as good.

physchem = conditions: organic solvent or mixture, thermodynamic from solid
From the text: The solubility in each solvent was visually evaluated by the following criteria:
A: completely dissolved (the solubility is excellent),
B: slightly remaining suspended solids (the solubility is good), and
C: not dissolved at all (the solubility is poor).

Solubility in water = format: physicochemical
From the text: The water-insoluble coloring compound represented by Formula (1) of the present invention has a high affinity to an organic solvent. In the present invention, the term “water-insoluble” refers to that the solubility in water is less than 1% as mass percentage.

SMILES	ΔE (36 h) [1]	other results
CCOc1cc(C)c(N=c2ccc3c(-c4ccccc4S(=O)(=O)O)c4ccc(Nc5c(C)cc(OCC)c(NC(C)=O)c5C)cc4oc-3c2)c(C)c1NC(C)=O [(18)]	3.9	–
CC(=O)Nc1c(C)c(N=c2ccc3c(-c4ccccc4S(=O)(=O)O)c4ccc(Nc5c(C)c(NC(C)=O)c(C)c(NC(C)=O)c5C)cc4oc-3c2)c(C)c(NC(C)=O)c1C [(11)]	2.3	–
CC(=O)Nc1ccc(C)c(N=c2ccc3c(-c4ccccc4S(=O)(=O)O)c4ccc(Nc5c(C(C)C)ccc(NC(C)=O)c5C(C)C)cc4oc-3c2)c1C [(16)]	5.8	–
CCC(=O)Nc1c(C)cc(C)c(N=c2ccc3c(-c4ccccc4S(=O)(=O)O)c4ccc(Nc5c(C)cc(C)c(NC(=O)CC)c5C)cc4oc-3c2)c1C [Compound (6)]	3.3	–
CCc1ccc(NC(C)=O)c(CC)c1Nc1ccc2c(-c3ccccc3S(=O)(=O)O)c3ccc(=Nc4c(C)ccc(NC(C)=O)c4C)cc-3oc2c1 [(15)]	5.0	–
Cc1ccc(/N=N/c2c(O)c(C(=O)O)cc3ccccc23)c(S(=O)(=O)O)c1 [(3)]	1.5	solubility (physchem; chloroform): < 42.9 mg/mL; solubility (physchem; ethyl acetate): < 42.9 mg/mL; solubility (physchem; methanol): < 42.9 mg/mL; solubility (physchem; toluene): < 42.9 mg/mL
CCc1ccc(NC(C)=O)c(CC)c1N=c1ccc2c(-c3ccccc3S(=O)(=O)O)c3ccc(Nc4c(CC)ccc(NC(C)=O)c4CC)cc3oc-2c1 [(14)]	5.2	–
Cc1cc(C)c(NC(=O)C(C)C)c(C)c1N=c1ccc2c(-c3ccccc3S(=O)(=O)O)c3ccc(Nc4c(C)cc(C)c(NC(=O)C(C)C)c4C)cc3oc-2c1 [Compound (8)]	2.9	–
CCN(CC)c1ccc2c(c1)Oc1cc(N(CC)CC)ccc1C21OC(=O)c2ccccc21 [(1)]	15.8	solubility (physchem; chloroform): > 42.9 mg/mL; solubility (physchem; ethyl acetate): < 42.9 mg/mL; solubility (physchem; methanol): > 42.9 mg/mL; solubility (physchem; toluene): < 42.9 mg/mL
Cc1cc(C)c(NC(=O)c2cccnc2)c(C)c1N=c1ccc2c(-c3ccccc3S(=O)(=O)O)c3ccc(Nc4c(C)cc(C)c(NC(=O)c5cccnc5)c4C)cc3oc-2c1 [(22)]	5.0	–
Nc1c(Oc2ccccc2)cc(O)c2c1C(=O)c1ccccc1C2=O [(2)]	12.3	solubility (physchem; chloroform): < 42.9 mg/mL; solubility (physchem; ethyl acetate): < 42.9 mg/mL; solubility (physchem; methanol): < 42.9 mg/mL; solubility (physchem; toluene): < 42.9 mg/mL
Cc1cc(C)c(NC(=O)c2ccccc2)c(C)c1N=c1ccc2c(-c3ccccc3S(=O)(=O)O)c3ccc(Nc4c(C)cc(C)c(NC(=O)c5ccccc5)c4C)cc3oc-2c1 [Compound (10)]	3.8	–
CCOC(=O)c1ccccc1C(=O)Nc1c(C)cc(C)c(N=c2ccc3c(-c4ccccc4S(=O)(=O)O)c4ccc(Nc5c(C)cc(C)c(NC(=O)c6ccccc6C(=O)OCC)c5C)cc4oc-3c2)c1C [(12)]	3.5	–
CCCC(=O)Nc1c(C)cc(C)c(N=c2ccc3c(-c4ccccc4S(=O)(=O)O)c4ccc(Nc5c(C)cc(C)c(NC(=O)CCC)c5C)cc4oc-3c2)c1C [Compound (7)]	3.2	–
CCCCCCCCCCCCCCCCCC(=O)Nc1c(C)cc(C)c(N=c2ccc3c(-c4ccccc4S(=O)(=O)O)c4ccc(Nc5c(C)cc(C)c(NC(=O)CCCCCCCCCCCCCCCCC)c5C)cc4oc-3c2)c1C [(23)]	3.8	–
CC(=O)Nc1c(C)cc(C)c(N=c2ccc3c(-c4ccccc4S(=O)(=O)O)c4ccc(Nc5c(C)c(NC(C)=O)c(C)c(NC(C)=O)c5C)cc4oc-3c2)c1C [(13)]	3.1	–
C=C(C)C(=O)Nc1c(C)cc(C)c(N=c2ccc3c(-c4ccccc4S(=O)(=O)O)c4ccc(Nc5c(C)cc(C)c(NC(=O)C(=C)C)c5C)cc4oc-3c2)c1C [(21)]	7.8	–
CC(=O)Nc1c(C)cc(C)c(N=c2ccc3c(-c4ccccc4S(=O)(=O)O)c4ccc(Nc5c(C)cc(C)c(NC(C)=O)c5C)cc4oc-3c2)c1C [Compound (5)]	3.2	solubility in water (Solubility in water): less than 1 % as mass percentage
